Common to all, as to experiment: growth of human tumour cells (NCI), 48 h
Assay [1] has as its system SNB-75 CNS.
Assay [2] relates to CCRF-CEM leukemia.
The subject of assay [3] is OVCAR-3 ovarian.
For assay [4], the system named is SR leukemia.
Assay [5] relates to SK-MEL-5 melanoma.
Assay [6] relates to HCT-15 colon.
Assay [7] relates to BT-549 breast.
For assay [8], the system named is T-47D breast.
For assay [9], the system named is 786-0 renal.
In assay [10] the test system is A549 NSCLC.

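Dose response: 5 concentrations. Exposure: 48 h. Format: 96-well plates. Endpoint: linear interpolation; highest concentration if not reached. At the GI50, growth is halved. Definition used: TGI = concentration required for complete inhibition of growth.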

As to `O=C(/C=C\c1ccc(NCc2ccc(C(=O)O)cc2)cc1)CCl`, the GI50 in [1] was 13.4 µM; in [2], 2.62 µM; in assay [3] it was 11.7 µM; in assay [4], 3.33 µM; in assay [5] it was 17.2 µM; in [6], 3.35 µM. Moreover, the GI50 in assay [7] was 7.95 µM; in assay [8], 2.6 µM; in assay [9], 10.2 µM; in assay [10] it was 17.2 µM. Further, the TGI was found to be 26.3 µM in assay [1]; 7.03 µM in assay [2]; 24.6 µM in [3]; 10.9 µM in [4]; 34.5 µM in [5]; 12.7 µM in assay [6]. Moreover, the TGI in [7] was found to be 21.5 µM; in [8] it was 12.5 µM; in [9], 23.9 µM; in assay [10], 33 µM.

Turning to `CC1=C[C@H]2c3c(c(O)c(O)c4oc(-c5ccccc5)cc(=O)c34)[C@H](c3cc(O)c(O)c4oc(-c5ccccc5)cc(=O)c34)[C@H]2C(C)(C)C1`, the GI50 is 0.286 µM in [1]; 0.67 µM in [2]; 1.46 µM in assay [3]; 0.457 µM in assay [4]; 0.974 µM in assay [5]; 1.82 µM in assay [6]. The GI50 in assay [7] was 1.58 µM; in assay [8] it was 1.02 µM; in assay [9] it was 1.71 µM; in [10], 0.29 µM. Besides, the TGI is 5.76 µM in assay [1]; more than 75 µM in assay [2]; 12 µM in assay [3]; more than 75 µM in assay [4]; 2.16 µM in assay [5]; 10.4 µM in assay [6]. Moreover, the TGI in assay [7] was 8.59 µM; in assay [8], 17.1 µM; in assay [9], 7.83 µM; in assay [10], 13.8 µM.

For `COc1cc(/C=C/c2ccc(OC)c(OC)c2)cc(OC)c1`, the TGI in assay [1] is more than 100 µM; in [2], more than 100 µM; in [3], 69 µM; in assay [4], more than 100 µM; in [5] it was 41.1 µM; in assay [6] it was 23.7 µM. Moreover, the TGI in assay [7] is 72.3 µM; in [8], more than 100 µM; in [9] it was 44.7 µM; in [10], more than 100 µM.

On to `CC1=CC(C/C(C)=C/COc2ccc3ccc(=O)oc3c2)OC1=O` (stereo not given), for which the TGI in [1], in [2], in assay [3], in assay [4], in assay [5] and in assay [6] was more than 100 µM throughout. Further, the TGI in [7], in [8], in [9] and in assay [10] was more than 100 µM each time.

Consider `C=C1CCC(CC[C@@H]2CC[C@]3(OC2)O[C@@]2(O)CC[C@]3(C)OC2(C)C)C(C)(C)[C@H]1C/C=C1/C(=O)OC[C@@H]1O` (stereo not given in full), for which the TGI was 19.3 µM in [1]; 2.32 µM in assay [2]; 7.41 µM in assay [3]; more than 100 µM in assay [4]; 1.72 µM in [5]; 3.25 µM in [6]. The TGI is 4.76 µM in assay [7], 6.15 µM in [8], 7.78 µM in assay [9] and 19.4 µM in assay [10].

For `O=S(=O)(Nc1cc(Sc2cccc3cccnc23)c(O)c2ccccc12)c1ccccc1`, the GI50 in assay [1] was 3.23 µM; in assay [2] it was 0.426 µM; in assay [3], 0.817 µM; in assay [4] it was 0.426 µM; in assay [5] it was 1.36 µM; in [6], 0.464 µM. The GI50 is 2.9 µM in assay [7], 1.56 µM in [8], 0.79 µM in [9] and 0.747 µM in assay [10]. Also, the TGI is 16.9 µM in assay [1]; 16 µM in assay [2]; 3.9 µM in assay [3]; 17.2 µM in [4]; 3.05 µM in [5]; 2.5 µM in [6]. Further, the TGI in assay [7] amounted to 16 µM; in assay [8], 4.79 µM; in [9], 10.7 µM; in assay [10], 18.1 µM.

`Cc1ncc(CCCN(C)C)cc1Nc1ncc2c(n1)-c1ccc(C(F)(F)F)cc1NC(=S)C2`: the GI50 is 0.0173 µM in assay [1]; less than 0.0134 µM in assay [2]; 0.0582 µM in assay [3]; less than 0.01 µM in assay [4]; less than 0.0282 µM in assay [5]; 0.0389 µM in [6]. Moreover, the GI50 in assay [7] is 0.768 µM; in [8], 0.814 µM; in assay [9] it was 0.0825 µM; in assay [10], 0.0104 µM. Further, the TGI in [1] was 0.975 µM; in assay [2], 10.4 µM; in assay [3], 15.2 µM; in [4] it was 3.35 µM; in [5], 4.85 µM; in assay [6] it was 15 µM. For the same compound, the TGI in [7] was 21.8 µM; in assay [8], 33.8 µM; in assay [9] it was 21.6 µM; in assay [10] it was 11.6 µM.

In the case of `COc1ccc(C(=O)COc2ccc(/C=C3\COc4ccc(OC)cc4C3=O)cc2)cc1`, the GI50 in assay [1] is 20 µM; in assay [2] it was 2.86 µM; in assay [3] it was 21 µM; in assay [4], 2.09 µM; in [5], 24.6 µM; in [6], 22.3 µM. The GI50 in assay [7] is 16.2 µM; in [8] it was 19.1 µM; in assay [9], 16.7 µM; in assay [10], more than 100 µM. In addition, the TGI was 69.9 µM in assay [1]; 10.2 µM in assay [2]; 62.2 µM in assay [3]; 5.91 µM in assay [4]; more than 100 µM in assay [5]; more than 100 µM in assay [6]. Moreover, the TGI was 35.8 µM in [7], 96.6 µM in assay [8], 37.9 µM in [9] and more than 100 µM in assay [10].

In the case of `C#Cc1c(I)n(C2OC(CO[Si](C)(C)C(C)(C)C)C3OC(C)(C)OC32)c(=O)[nH]c1=O` (stereo not given), the GI50 was 14.4 µM in assay [1]; 4 µM in assay [2]; 1.65 µM in assay [3]; 2.62 µM in assay [4]; 13.1 µM in [5]; 4.09 µM in assay [6]. Further, the GI50 in [7] was 16.4 µM; in [8] it was 5.42 µM; in assay [9] it was 14.7 µM; in [10] it was 49.6 µM. Moreover, the TGI in assay [1] is 29.4 µM; in assay [2], 11.9 µM; in assay [3], 3.56 µM; in assay [4], 12.8 µM; in assay [5] it was 27.1 µM; in [6], more than 100 µM. For the same compound, the TGI is 31.2 µM in assay [7], 28 µM in assay [8], 29.4 µM in assay [9] and more than 100 µM in [10].

Consider `O=c1cc(NC2CCN(CCCc3ccccc3)CC2)c2cc(Cl)ccc2o1`, for which the GI50 in assay [1] was 8.1 µM; in assay [2] it was 18.2 µM; in [3], 6.6 µM; in [4] it was 6.81 µM; in [5], 12 µM; in assay [6] it was 3.89 µM. The GI50 in [7] was 12.9 µM; in [8] it was 12.5 µM; in assay [9], 6.55 µM; in assay [10], 13.4 µM. The TGI is 21.1 µM in assay [1]; 79.3 µM in assay [2]; 19.4 µM in assay [3]; 28.3 µM in assay [4]; 24.4 µM in assay [5]; 17.4 µM in [6]. Further, the TGI was 26.8 µM in assay [7], 38.4 µM in [8], 21.2 µM in assay [9] and 28.6 µM in assay [10].

Consider `CN(C)C(=O)[C@H](O)[C@H](Cc1ccccc1)NC(=O)c1cc2cc(Cl)ccc2[nH]1`, for which the GI50 was 17.4 µM in assay [1]; 30.2 µM in assay [2]; 18.5 µM in assay [3]; 26.6 µM in assay [4]; 15.6 µM in assay [5]; 22.4 µM in assay [6]. The GI50 in [7] was 22.8 µM; in assay [8], 25.1 µM; in assay [9] it was 27.3 µM; in assay [10], 24 µM. Moreover, the TGI in [1] is 65.6 µM; in assay [2] it was more than 100 µM; in assay [3], 43.5 µM; in assay [4], 88.7 µM; in assay [5], 30.6 µM; in [6] it was 81.5 µM. In addition, the TGI in assay [7] was 72.1 µM; in assay [8], more than 96.7 µM; in [9], more than 85.2 µM; in [10], more than 93.3 µM.

With `CCCCON(OC(=O)c1ccc2ccc3cccc4ccc1c2c34)C(C)=O`, the GI50 in [1] is 19.9 µM; in assay [2], 16.3 µM; in assay [3], 31.8 µM; in [4], 13.2 µM; in assay [5], 16.9 µM; in assay [6], 30.9 µM. Also, the GI50 in assay [7] was 19.2 µM; in assay [8], 29.7 µM; in assay [9], 19.6 µM; in assay [10], 39.1 µM. Moreover, the TGI in assay [1] was 41.7 µM; in assay [2], 41.4 µM; in assay [3] it was 82.7 µM; in [4], 35.1 µM; in [5], 32.5 µM; in assay [6], more than 100 µM. The TGI in [7] was 42.7 µM; in [8] it was more than 100 µM; in assay [9], 38.2 µM; in assay [10], more than 100 µM.

As for `COc1cccc(C#Cc2ccccc2C#CCCCCO)c1`, the GI50 in assay [1] is 12.8 µM; in assay [2] it was 3.5 µM; in [3], 10.7 µM; in assay [4], 1.95 µM; in [5], 19.1 µM; in [6], 3.62 µM. Also, the GI50 was 3.07 µM in assay [7], 18.5 µM in assay [8], 12.8 µM in assay [9] and 4.21 µM in assay [10]. The TGI in [1] was 26.3 µM; in assay [2], 17.4 µM; in assay [3], 28.8 µM; in assay [4], 12.1 µM; in assay [5] it was 33.8 µM; in assay [6], 17.7 µM. Further, the TGI in assay [7] stood at 20.2 µM; in assay [8], 43.1 µM; in assay [9], 28 µM; in [10], 17.3 µM.

Take `Cc1[nH]c2ccccc2c(=O)c1CC=C(Cl)Cl`: the GI50 in assay [1] was 10.6 µM; in assay [2] it was more than 100 µM; in assay [3], 43.5 µM; in assay [4], 58.1 µM; in assay [5], 27.5 µM; in [6], more than 100 µM. Also, the GI50 in assay [7] was 47 µM; in assay [8], 29 µM; in assay [9] it was 35.3 µM; in assay [10] it was 49.4 µM. Moreover, the TGI in [1] was 37.5 µM; in [2] it was more than 100 µM; in assay [3] it was more than 100 µM; in assay [4] it was more than 100 µM; in [5], more than 100 µM; in assay [6], more than 100 µM. Moreover, the TGI in [7], in assay [8], in assay [9] and in assay [10] was more than 100 µM each time.

As to `C=C1C(=O)OC2/C=C(\COC(C)=O)CCC(OC(C)=O)C3=CC(OC3=O)C12` (stereo not given), the TGI in assay [1] turned out to be 35.6 µM; in assay [2], 4.63 µM; in [3], 12.4 µM; in assay [4] it was 16.1 µM; in assay [5], 26.7 µM; in assay [6] it was 7.76 µM. Besides, the TGI in assay [7] stood at 22.6 µM; in assay [8], 53.4 µM; in assay [9] it was 20.9 µM; in [10], 43 µM.

For `CC(C)(C[C@H]1CN(S(=O)(=O)c2cccc(C(F)(F)F)c2)c2cc(-c3cc(F)cc(OC(F)F)c3)ccc2O1)C(=O)O`, the GI50 is 5.31 µM in assay [1]; 4.72 µM in assay [2]; 3.76 µM in [3]; 3.29 µM in assay [4]; 3.56 µM in assay [5]; 4.19 µM in assay [6]. Besides, the GI50 is 5.9 µM in assay [7], 5.19 µM in [8], 6.98 µM in assay [9] and 4.85 µM in assay [10]. The TGI in assay [1] was 23.4 µM; in assay [2], 24.7 µM; in assay [3], 14.1 µM; in assay [4] it was 23.8 µM; in [5], 14.9 µM; in assay [6], 16.9 µM. Also, the TGI in assay [7] stood at 22.3 µM; in [8], 29.2 µM; in assay [9] it was 20.7 µM; in [10], 17.9 µM.

These data come from PubChem BioAssay (NCI).
